This note sets out measurements from US7501430B2 (ArQule, Inc., priority 2006, dated 2009).

The target in the first test is T1, mutant B-RAF (Homo sapiens, UniProt P15056, V600E).
T1 construct: purchased Upstate (Charlottesville, Va.)
T1 sequence (P15056 whole entry V600E): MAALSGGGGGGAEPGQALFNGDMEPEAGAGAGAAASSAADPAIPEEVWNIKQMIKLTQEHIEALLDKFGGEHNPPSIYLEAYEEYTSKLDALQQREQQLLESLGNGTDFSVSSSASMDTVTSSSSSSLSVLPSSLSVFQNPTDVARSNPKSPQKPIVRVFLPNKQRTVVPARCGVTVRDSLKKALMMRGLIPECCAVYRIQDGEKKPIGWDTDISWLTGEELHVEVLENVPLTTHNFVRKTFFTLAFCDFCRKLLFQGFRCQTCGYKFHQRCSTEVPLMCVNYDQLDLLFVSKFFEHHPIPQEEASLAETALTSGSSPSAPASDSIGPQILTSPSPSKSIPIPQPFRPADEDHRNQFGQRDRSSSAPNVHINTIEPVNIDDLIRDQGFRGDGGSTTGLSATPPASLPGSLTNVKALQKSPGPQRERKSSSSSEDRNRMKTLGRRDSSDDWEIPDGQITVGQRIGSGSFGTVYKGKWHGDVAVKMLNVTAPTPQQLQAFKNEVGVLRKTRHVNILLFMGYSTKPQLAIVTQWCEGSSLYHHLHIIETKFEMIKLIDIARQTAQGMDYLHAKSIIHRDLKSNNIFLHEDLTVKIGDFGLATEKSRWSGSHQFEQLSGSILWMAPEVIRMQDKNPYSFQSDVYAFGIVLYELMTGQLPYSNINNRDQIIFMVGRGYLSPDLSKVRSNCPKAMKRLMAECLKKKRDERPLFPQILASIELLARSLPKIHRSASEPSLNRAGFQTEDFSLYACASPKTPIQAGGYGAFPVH
In words: RAF biochemical assay (MEK-1 phosphorylation, anti-phospho MEK1/2 detection).
Settings: not given
An outline of the steps: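 Detection is by ELISA: after a 30 min room-temperature reaction, plate-captured GST-MEK-1 is probed with anti-phospho MEK1/2, then an AP-tagged secondary antibody with fluorescent Attophos read-out.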
On to `COCC(=O)N1CCC[C@@H](Nc2nccc(-c3c(-c4ccc(F)cc4)nc4occn34)n2)C1` [Example 30, 4-[6-(4-fluorophenyl)imi-dazo[2,1-b][1,3]oxazol-5-yl]-N-[(3R)-1-(methoxyacetyl)piperidin-3-yl]pyrimidin-2-amine], for which it took 711 nM to reach half-maximal inhibition (IC50).

Turning to `CCC(=O)N1CCC[C@@H](Nc2nccc(-c3c(-c4ccc(F)cc4)nc4occn34)n2)C1` [Example 34, 4-[6-(4-fluorophenyl)imi-dazo[2,1-b][1,3]oxazol-5-yl]-N-[(3R)-1-propionylpiperidin-3-yl]pyrimidin-2-amine], half-maximal inhibition (IC50) required 1580 nM.

The same test, now with this note: @ 10 uM; read-out: Mutant B-RAF % inhibition.
Consider `O=S(=O)(c1cc(C(F)(F)F)cc(C(F)(F)F)c1)N1CCC[C@@H](Nc2nccc(-c3c(-c4ccc(F)cc4)nc4occn34)n2)C1` [Example 56, N-((3R)-1-{[3,5-bis(trifluoromethyl)phenyl]sulfonyl}piperidin-3-yl)-4-[6-(4-fluorophenyl)imidazo[2,1-b][1,3]oxazol-5-yl]pyrimidin-2-amine], for which the inhibition at 10 µM stood at 57%.

For the compound `O=C(Nc1ccccc1F)N1CCC[C@@H](Nc2nccc(-c3c(-c4ccc(F)cc4)nc4occn34)n2)C1` [Example 74, (3R)-N-(2-fluorophenyl)-3-({4-[6-(4-fluorophenyl)imidazo[2,1-b][1,3]oxazol-5-yl]pyrimidin-2-yl}amino)piperidine-1-carboxamide], the inhibition at 10 µM was determined as 35%.

`COc1ccc(C(=O)N2CCC[C@@H](Nc3nccc(-c4c(-c5ccc(F)c(F)c5)nc5sccn45)n3)C2)cc1` [Example 89, 4-[6-(3,4-difluorophenyl)imidazo[2,1-b][1,3]thiazol-5-yl]-N-[(3R)-1-(4-methoxybenzoyl)piper-idin-3-yl]pyrimidin-2-amine]: the inhibition at 10 µM is 40%.

In the case of `O=S(=O)(c1ccc(F)cc1)N1CCC(Nc2nccc(-c3c(-c4ccc(F)c(F)c4)nc4sccn34)n2)CC1` [Example 217, 4-[6-(3,4-difluorophenyl)imidazo[2,1-b][1,3]thiazol-5-yl]-N-{1-[(4-fluorophenyl)sulfonyl]piperidin-4-yl}pyrimidin-2-amine], the inhibition at 10 µM came out at 48%.

The same test, now with this note: read-out: Mutant B-RAF % inhibition.
Turning to `COc1cccc(-c2nc3sccn3c2-c2ccnc(N[C@@H]3CCCN(C(=O)c4ccc(F)cc4)C3)n2)c1` [Example 108, N-[(3R)-1-(4-fluorobenzoyl)piperidin-3-yl]-4-[6-(3-methoxyphenyl)imi-dazo[2,1-b][1,3]thiazol-5-yl]pyrimidin-2-amine], the inhibition at 10 µM was 73%.

`Fc1ccc(-c2nc3sccn3c2-c2ccnc(N[C@@H]3CCCNC3)n2)cc1` [Example 62]: the inhibition at 10 µM turned out to be 45%.

For the compound `O=S(=O)(c1ccc(OC(F)(F)F)cc1)N1CCC[C@@H](Nc2nccc(-c3c(-c4ccc(F)cc4)nc4occn34)n2)C1` [Example 49, 4-[6-(4-fluorophenyl)imi-dazo[2,1-b][1,3]oxazol-5-yl]-N-((3R)-1-{(4-(trifluoro-methoxy)phenyl]sulfonyl}piperidin-3-yl)pyrimidin-2-amine], the inhibition at 10 µM was 32%.

The same test, now with this note: read-out: Mutant B-RAF IC50.
As to `NC(=O)c1ccc(S(=O)(=O)N2CCC(Nc3nccc(-c4c(-c5cccc(O)c5)nc5occn45)n3)CC2)cc1` [Example 319, 4-{[4-({4-[6-(3-hydroxyphenyl)imidazo[2,1-b][1,3]oxazol-5-yl]pyrimidin-2-yl}amino)piperidin-1-yl]sulfonyl)benzamide], the IC50 was determined as 18 nM.

For `CCC(=O)N1CCC(Nc2nccc(-c3c(-c4ccc(F)cc4)nc4occn34)n2)CC1` [Example 188, 4-[6-(4-fluorophenyl)imidazo[2,1-b][1,3]oxazol-5-yl]-N-(1-propionylpiperidin-4-yl)pyrimidin-2-amine], the IC50 came to 1500 nM.

`CCCS(=O)(=O)N1CCC[C@@H](Nc2nccc(-c3c(-c4cccc(O)c4)nc4sccn34)n2)C1` [Example 370, 3-[5-(2-{[(3R)-1-(propylsulfonyl)piperidin-3-yl]amino}pyrimidin-4-yl)imidazo[2,1-b][1,3]thiazol-6-yl]phenol]: the half-maximal inhibitory concentration (IC50) was 1200 nM.

Turning to `OC[C@H](O)CN1CCC[C@@H](Nc2nccc(-c3c(-c4cccc(O)c4)nc4sccn34)n2)C1` [Example 148, (2R)-3-[(3R)-3-({4-[6-(3-hydroxyphenyl)imidazo[2,1-b][1,3]thiazol-5-yl]pyrimidin-2-yl}amino)piperidin-1-yl]propane-1,2-diol], the IC50 was greater than 3000 nM.

Turning to `CN(C)c1ccc(NC(=O)N2CCC(Nc3nccc(-c4c(-c5ccc(-c6ccccc6)cc5)nc5sccn45)n3)CC2)cc1` [Example 254, 4-{[4-(6-biphenyl-4-ylimidazo[2,1-b][1,3]thiazol-5-yl)pyri-midin-2-yl]amino)-N-[4-(di-methylamino)phenyl]piperidine-1-carboxamide], the half-inhibitory concentration (IC50) is greater than 3000 nM.

Take `CCOC(=O)c1ccc(-c2nc3sccn3c2-c2ccnc(N[C@@H]3CCCN(S(=O)(=O)c4ccc(Cl)cc4)C3)n2)cc1OCC` [Example 130, ethyl 4-{5-[2-({(3R)-1-[(4-chlorophenyl)sulfonyl]piperidin-3-yl}amino)pyrimidin-4-yl]imidazo[2,1-b][1,3]thiazol-6-yl}-2-ethoxybenzoate]: the IC50 worked out at 1090 nM.

Consider `CC(C)S(=O)(=O)N1CCC[C@@H](Nc2nccc(-c3c(-c4cccc(O)c4)nc4sccn34)n2)C1` [Example 368, 3-[5-(2-{[(3R)-1-(isopropylsulfonyl)piperidin-3-yl]amino}pyrimidin-4-yl)imidazo[2,1-b][1,3]thiazol-6-yl]phenol], for which the IC50 was greater than 3000 nM.

On to `COc1cccc(-c2nc3sccn3c2-c2ccnc(NC3CCN(S(C)(=O)=O)CC3)n2)c1` [Example 326, 4-[6-(3-methoxyphenyl)imidazo[2,1-b][1,3]thiazol-5-yl]-N-[1-(methylsulfonyl)piperidin-4-yl]pyrimidin-2-amine], for which the IC50 was 4000 nM.

Regarding `NCC(=O)N1CCC(Nc2nccc(-c3c(-c4ccc(F)cc4)nc4occn34)n2)CC1` [Example 190, N-[1-(aminoacetyl)piperidin-4-yl]-4-[6-(4-fluorophenyl)imidazo[2,1-b][1,3]oxazol-5-yl]pyrimidin-2-amine], the IC50 worked out at 1150 nM.

As to `NC(=O)Oc1cccc(-c2nc3occn3c2-c2ccnc(N[C@@H]3CCCN(S(=O)(=O)c4ccc(Cl)cc4)C3)n2)c1` [Example 386, 3-{5-[2-({(3R)-1-[(4-chlorophenyl)sulfonyl]piperidin-3-yl}amino)pyrimidin-4-yl]imidazo[2,1-b][1,3]oxazol-6-yl}phenyl carbamate], the IC50 amounted to 109 nM.

Take `O=C(O)CCc1ccc(S(=O)(=O)N2CCC[C@@H](Nc3nccc(-c4c(-c5ccc(F)cc5)nc5occn45)n3)C2)cc1` [Example 63, 3-(4-{[(3R)-3-({4-[6-(4-fluorophenyl)imidazo[2,1-b][1,3]oxazol-5-yl]pyrimidin-2-yl}amino)piperidin-1-yl]sulfonyl}phenyl)propanoicacid]: the half-maximal inhibitory concentration (IC50) was 441 nM.

As to `CN(C)c1ccc(NC(=O)N2CCC(Nc3nccc(-c4c(-c5ccc([N+](=O)[O-])cc5)nc5sccn45)n3)CC2)cc1` [Example 253, N-[4-(dimethylamino)phenyl]-4-({4-[6-(4-nitrophenyl)imidazo[2,1-b][1,3]thiazol-5-yl]pyrimid-in-2-yl}amino)piperidine-1-carboxamide], the IC50 was greater than 3000 nM.
